Assays:
DRG neurons = experiment: Ca2+ imaging in DRG neurons from wild-type mice; format: cell-based, mouse; conditions: 1.5 mM, 3 MAC
Experimental: Ca^2+ Imaging. Neurons were loaded with 1 μM Fluo4-AM (Molecular Probes) for 20 min and washed for a further 10-20 min before recording. The dye was excited at 488±15 nm. Emitted fluorescence was filtered with a 535±25 nm bandpass filter, captured by a SPOT RT digital camera (Diagnostic Instruments) and read into a computer. Analysis was performed offline by using Simple PCI software (Compix Inc.).

TRPM8 = biological target: T1, TRPM8 (Rattus norvegicus, UniProt Q8R455); experiment: Whole-cell patch-clamp of TRPM8-expressing HEK293 cells; format: cell-based
T1 construct: expressed in transfected cells; host or cells: HEK 293F
Experimental: Electrophysiology. […] Whole-cell and single-channel patch-clamp recordings were performed by using an EPC8 amplifier (HEKA Electronics). For whole-cell and excised patch recordings the bath solution contained 140 mMNaCl, 4 mMKCl, 1 mMMgCl2, 1.2 mMCaCl2, 10 mMHepes, 10 mM glucose, pH 7.3. For cell-attached experiments, NaCl was replaced with KCl in the bath solution. […] For neuronal recording NaCl was replaced with K-gluconate (plus 1 mMATP, 0.2 mM GTP). Solutions were applied via a gravity-fed system. […] Voltage-dependent properties were measured as described in Matt and Ahern, J. Physiol. […] The baseline currents under control conditions were subtracted. For cell-attached experiments, peak amplitudes were measured from all-points histograms, and open probability was measured as NPo>750 ms. Defolliculated Xenopus laevis oocytes were injected with ≈10 ng of hTRPA1 (gift of Ardem Patapoutian, The Scripps Research Institute, La Jolla, Calif.).

[1] = test system: AITC-sensitive DRG neurons; experiment: Voltage- and current-clamp of DRG sensory neurons; format: cell-based, mouse; conditions: 0.9 mM, wild-type mice, voltage-clamp, 11 of 35
mutant S502A/S800A TRPV1 = biological target: T2, mutant S502A/S800A TRPV1 (Rattus norvegicus, UniProt O35433, S502A/S800A); experiment: Heat activation in oocytes expressing mutant S502A/S800A TRPV1; format: cell-based
T2 construct: expressed in transfected cells; host or cells: Xenopus laevis oocytes (cRNA injection)
Experimental: Oocyte electrophysiology. […] Oocytes were placed in a Perspex chamber and continuously superfused (5 ml min-1) with Ca2+-free solution containing (in mM): 100 NaCl, 2.5 KCl, 5 HEPES, 1 MgCl2 and titrated to pH 7.3 with 5 mM NaOH. For solutions <pH 6.0, HEPES was replaced with either 5 mM MES or 5 mM sodium citrate. Oocytes were routinely voltage-clamped at -60 mV at 22-23° C.

TRPV1 = biological target: T3, TRPV1 (Mus musculus, UniProt Q704Y3); experiment: Patch-clamp of capsaicin-sensitive sensory neurons (nodose ganglia); format: cell-based
T3 construct: endogenous in cells; host or cells: primary nodose ganglion neurons of adult C57Bl6/J mice
Experimental: HEK cell and sensory neuron electrophysiology. HEK 293F cells (Invitrogen) were cultured in DMEM supplemented with 1% non-essential amino acids and 10% fetal calf serum. Cell cultures were maintained at 37° C. with 5% CO2. Cells were transfected with rat TRPV 1 (gift of David Julius), and GFP cDNA using Lipofectamine™ Transfection Reagent (Invitrogen) and used 24-48 h after transfection. Nodose ganglia were obtained from adult mice (C57B16/J and TRPV1-null), cut, digested with collagenase, and cultured in Neurobasal +2% B-27 medium (Invitrogen), 0.1% L-glutamine and 1% penicillin/streptomycin on poly-D lysine-coated glass coverslips at 37° C. in 5% CO2. Neurons were used within 24-36 hr of culture. Whole-cell and single-channel patch clamp recordings were performed using an EPC8 amplifier (HEKA). The current signal was low-pass filtered at 1-3 kHz and sampled at 4 kHz. Currents were further filtered for display purposes. For whole-cell and excised patch recordings the bath solution contained (in mM): 140 NaCl, 4 KCl, 1 MgCl2, 1 EGTA, 10 HEPES, 10 glucose pH 7.3 (290 mOsm). The pipette solution contained (in mM): 140 CsC1, 10 NaCl, 10 HEPES, 5 EGTA, 2 Mg ATP and 0.03 GTP, pH 7.3. The peak amplitudes measured either during the prepulse or the tail current (within 1 ms) were plotted as a function of the test potential and normalized to the maximal current obtained from the following Boltzmann function: […]

T3 sequence (Q704Y3 whole entry): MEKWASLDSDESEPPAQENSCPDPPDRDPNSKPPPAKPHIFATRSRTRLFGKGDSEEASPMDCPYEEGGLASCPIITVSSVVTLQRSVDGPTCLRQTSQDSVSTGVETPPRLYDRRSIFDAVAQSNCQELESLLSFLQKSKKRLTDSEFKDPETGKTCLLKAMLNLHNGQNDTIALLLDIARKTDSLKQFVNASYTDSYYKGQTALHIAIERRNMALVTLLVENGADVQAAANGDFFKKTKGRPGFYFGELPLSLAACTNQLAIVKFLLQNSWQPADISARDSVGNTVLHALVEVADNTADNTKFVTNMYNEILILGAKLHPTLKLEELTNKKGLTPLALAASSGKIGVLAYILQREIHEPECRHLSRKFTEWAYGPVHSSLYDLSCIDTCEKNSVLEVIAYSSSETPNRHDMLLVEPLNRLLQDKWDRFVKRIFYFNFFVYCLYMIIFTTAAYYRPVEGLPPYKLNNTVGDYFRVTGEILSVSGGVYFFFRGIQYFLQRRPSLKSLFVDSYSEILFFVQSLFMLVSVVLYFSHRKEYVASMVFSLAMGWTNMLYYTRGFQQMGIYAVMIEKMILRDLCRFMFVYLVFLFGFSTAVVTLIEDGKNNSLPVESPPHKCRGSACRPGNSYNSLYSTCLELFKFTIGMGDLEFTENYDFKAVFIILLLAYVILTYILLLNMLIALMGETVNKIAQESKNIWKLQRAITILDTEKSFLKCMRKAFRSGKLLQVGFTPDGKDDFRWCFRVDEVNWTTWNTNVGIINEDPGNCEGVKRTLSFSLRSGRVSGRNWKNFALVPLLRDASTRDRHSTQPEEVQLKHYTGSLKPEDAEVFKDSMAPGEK
T1 sequence (Q8R455 whole entry): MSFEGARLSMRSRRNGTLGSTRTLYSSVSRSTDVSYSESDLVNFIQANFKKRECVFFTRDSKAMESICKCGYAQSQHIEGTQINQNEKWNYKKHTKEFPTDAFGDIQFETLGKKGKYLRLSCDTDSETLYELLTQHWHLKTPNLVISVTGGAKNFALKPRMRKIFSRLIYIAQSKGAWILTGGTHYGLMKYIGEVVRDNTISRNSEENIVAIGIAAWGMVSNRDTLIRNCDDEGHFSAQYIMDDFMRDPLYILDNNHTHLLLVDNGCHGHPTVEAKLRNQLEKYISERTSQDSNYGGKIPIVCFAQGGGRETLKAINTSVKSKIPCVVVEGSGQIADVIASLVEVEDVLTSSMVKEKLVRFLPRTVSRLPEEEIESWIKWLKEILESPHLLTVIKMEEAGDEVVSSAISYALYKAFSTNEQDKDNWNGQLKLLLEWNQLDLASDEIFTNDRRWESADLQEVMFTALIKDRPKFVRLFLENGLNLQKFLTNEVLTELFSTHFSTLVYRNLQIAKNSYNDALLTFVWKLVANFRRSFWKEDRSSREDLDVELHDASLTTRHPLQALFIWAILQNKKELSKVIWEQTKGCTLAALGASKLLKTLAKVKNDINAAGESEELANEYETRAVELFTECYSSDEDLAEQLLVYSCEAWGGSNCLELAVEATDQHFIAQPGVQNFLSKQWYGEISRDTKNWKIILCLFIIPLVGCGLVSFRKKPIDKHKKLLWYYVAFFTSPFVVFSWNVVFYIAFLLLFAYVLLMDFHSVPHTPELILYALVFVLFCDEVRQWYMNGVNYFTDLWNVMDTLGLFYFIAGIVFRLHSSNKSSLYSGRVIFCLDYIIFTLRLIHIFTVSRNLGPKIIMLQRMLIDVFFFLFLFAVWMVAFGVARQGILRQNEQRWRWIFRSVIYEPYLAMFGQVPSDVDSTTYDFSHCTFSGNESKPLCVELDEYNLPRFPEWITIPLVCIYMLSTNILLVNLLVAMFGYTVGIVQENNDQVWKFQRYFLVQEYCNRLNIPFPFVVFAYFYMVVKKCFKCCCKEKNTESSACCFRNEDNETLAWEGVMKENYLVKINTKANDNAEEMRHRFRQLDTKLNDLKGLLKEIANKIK
T2 sequence (O35433 whole entry S502A/S800A): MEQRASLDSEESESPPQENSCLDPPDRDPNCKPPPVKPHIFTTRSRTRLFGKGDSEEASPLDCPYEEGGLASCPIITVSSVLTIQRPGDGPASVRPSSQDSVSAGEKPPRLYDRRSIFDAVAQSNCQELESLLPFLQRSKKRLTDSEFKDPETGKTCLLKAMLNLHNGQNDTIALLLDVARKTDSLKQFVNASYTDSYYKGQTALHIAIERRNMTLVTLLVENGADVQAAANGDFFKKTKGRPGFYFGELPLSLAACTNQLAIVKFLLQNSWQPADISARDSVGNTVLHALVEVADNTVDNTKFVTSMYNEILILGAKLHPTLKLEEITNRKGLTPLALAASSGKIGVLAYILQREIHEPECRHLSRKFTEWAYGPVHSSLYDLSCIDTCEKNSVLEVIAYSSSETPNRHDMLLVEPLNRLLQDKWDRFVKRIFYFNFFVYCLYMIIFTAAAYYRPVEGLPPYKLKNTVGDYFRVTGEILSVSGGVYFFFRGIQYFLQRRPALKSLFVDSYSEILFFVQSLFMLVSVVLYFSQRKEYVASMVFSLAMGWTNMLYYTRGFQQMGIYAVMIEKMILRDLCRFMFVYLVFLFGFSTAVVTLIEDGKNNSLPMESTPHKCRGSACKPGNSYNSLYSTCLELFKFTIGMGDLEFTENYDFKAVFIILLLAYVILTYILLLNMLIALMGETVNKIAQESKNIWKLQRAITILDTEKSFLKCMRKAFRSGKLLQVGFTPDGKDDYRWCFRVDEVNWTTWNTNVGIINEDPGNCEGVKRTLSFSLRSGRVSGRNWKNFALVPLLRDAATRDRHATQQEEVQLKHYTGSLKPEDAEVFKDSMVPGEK

SMILES	Neurons with evoked Ca2+ increase (DRG neurons)	Activation of TRPM8 currents (TRPM8; 0.9 mM (2.9 MAC))	Effects at TRPM8 at holding potential −50 mV (TRPM8; isoflurane 0.9 mM, octanol 1 mM)	Neurons with evoked currents [1] [%]	Temperature threshold, mutant S502A/S800A TRPV1 (mutant S502A/S800A TRPV1; PDBu+isoflurane, n=3) [°C]	Temperature threshold, mutant S502A/S800A TRPV1 (mutant S502A/S800A TRPV1; isoflurane, n=5) [°C]	Capsaicin-evoked single channel activity (TRPV1; cell-free outside-out patches, capsaicin 30 nM, isoflurane 0.9 mM)	Single TRPV1 channel activity in neurons after PDBu treatment (TRPV1; isoflurane 0.9 mM)	Response of sensory neurons under control conditions (TRPV1; isoflurane 0.9 mM, AITC-insensitive neurons)	Enhancement of capsaicin-evoked whole-cell currents (TRPV1; isoflurane 0.9 mM, capsaicin 30 nM, n=5)	Response of sensory neurons after BK treatment (TRPV1; isoflurane 0.9 mM, n=7, P<0.01)	Membrane excitability under current-clamp, co-application with BK (TRPV1; n=3)
FC(F)OC(F)C(F)(F)F (stereo not drawn) [desflurane]	36 of 123											
FC(F)OC(Cl)C(F)(F)F (stereo not drawn) [isoflurane]		failed to activate	negligible effects	31	37.3±0.7	39.4±1.9	increased	activated	negligible responses	approximately 3 fold	marked increase in current	depolarized neurons and initiated sustained spike discharge

From patent US20110104301A1, “METHODS OF REDUCING PAIN AND INFLAMMATION” (Georgetown University, A Congressionally Chartered …, priority 2008, published 2011)
